Tests used:
[1] = target: recombinant human Mcl-1 (residues 171-327) / Bim interaction (Homo sapiens (Human), UniProt Q07820); test: biochemical; format: binding; conditions: TR-FRET, Mcl-1(171-327) / biotin-Bim (51-76); read-out: Mcl-1 HTRF IC50
[2] = tested on: human multiple myeloma cell line, OPM-2; test: Cell viability assay (OPM-2 10 FBS), CellTiter-Glo; format: cell-based; conditions: Homo sapiens, OPM-2, 16 h, read-out: OPM-2 10% FBS IC50 IP, OPM-2 cells, 10% FBS, 16 h, CellTiter-Glo
In short: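 3000 cells/well, RPMI 1640 + 10% FBS; serial compound dilutions, 16 h, 37 °C/5% CO2.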

Sequence of recombinant human Mcl-1 (residues 171-327) / Bim interaction (Q07820 171-327): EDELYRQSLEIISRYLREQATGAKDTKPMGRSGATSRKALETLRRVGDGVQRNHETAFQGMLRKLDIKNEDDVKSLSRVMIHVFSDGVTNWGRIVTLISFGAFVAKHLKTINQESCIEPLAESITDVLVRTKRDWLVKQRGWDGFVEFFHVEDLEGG

C#C[C@@]1(OCCN2CCOCC2)/C=C/C[C@H](C)[C@@H](C)S(=O)(=O)NC(=O)c2ccc3c(c2)N(C[C@@H]2CC[C@H]21)C[C@@]1(CCCc2cc(Cl)ccc21)CO3 [Example 100505, (1S,3′R,6′R,7′R,8′E,11′S,12′R)-6-chloro-7′-ethynyl-11′,12′-dimethyl-7′-(2-(4-morpholinyl)ethoxy)-3,4-dihydro-2H,15′H-spiro[naphthalene-1,22′-[20]oxa[13]thia[1,14]diazatetracyclo [14.7.2.0~3,6~.0~19,24~]pentacosa[8,16,18,24]tetraen]-15′-one 13′,13′-dioxide]
IC50 [1]: 0.165 nM | IC50 [2]: 137 nM

CO[C@@]1(C#CCCN2CCOC[C@@H]2C)/C=C/C[C@H](C)[C@@H](C)S(=O)(=O)NC(=O)c2ccc3c(c2)N(C[C@@H]2CC[C@H]21)C[C@@]1(CCCc2cc(Cl)ccc21)CO3 [Example 100506, (1S,3′R,6′R,7′S,8′E,11′S,12′R)-6-chloro-7′-methoxy-11′,12′-dimethyl-7′-(4-((3S)-3-methyl-4-morpholinyl)-1-butyn-1-yl)-3,4-dihydro-2H,15′H-spiro[naphthalene-1,22′-[20]oxa[13]thia[1,14]diazatetracyclo [14.7.2.0~3,6~.0~19,24~]pentacosa[8,16,18,24]tetraen]-15′-one 13′,13′-dioxide]
IC50 [1]: 0.497 nM | IC50 [2]: 1270 nM

CO[C@@]1(Cc2ncco2)/C=C/C[C@H](C)[C@@H](C)S(=O)(=O)NC(=O)c2ccc3c(c2)N(C[C@@H]2CC[C@H]21)C[C@@]1(CCCc2cc(Cl)ccc21)CO3 [Example 100508, (1S,3′R,6′R,7′S,8′E,11′S,12′R)-6-chloro-7′-methoxy-11′,12′-dimethyl-7′-(1,3-oxazol-2-ylmethyl)-3,4-dihydro-2H,15′H-spiro[naphthalene-1,22′-[20]oxa[13]thia[1,14]diazatetracyclo [14.7.2.0~3,6~.0~19,24~]pentacosa[8,16,18,24]tetraen]-15′-one 13′,13′-dioxide]
IC50 [1]: 2.73 nM | IC50 [2]: 2500 nM

CO[C@@]1(CC(=O)NCCCl)/C=C/C[C@H](C)[C@@H](C)S(=O)(=O)NC(=O)c2ccc3c(c2)N(C[C@@H]2CC[C@H]21)C[C@@]1(CCCc2cc(Cl)ccc21)CO3 [Example 100509, N-(2-chloroethyl)-2-((1S,3′R,6′R,7′S,8′E,11′S,12′R)-6-chloro-7′-methoxy-11′,12′-dimethyl-13′,13′-dioxido-15′-oxo-3,4-dihydro-2H-spiro[naphthalene-1,22′-[20]oxa[13]thia[1,14]diazatetracyclo [14.7.2.0~3,6~.0~19,24~]pentacosa[8,16,18,24]tetraen]-7′-yl)acetamide]
IC50 [1]: 0.057 nM | IC50 [2]: 361 nM

CO[C@@]1(Cc2nnc(C)o2)/C=C/C[C@H](C)[C@@H](C)S(=O)(=O)NC(=O)c2ccc3c(c2)N(C[C@@H]2CC[C@H]21)C[C@@]1(CCCc2cc(Cl)ccc21)CO3 [Example 100512, (1S,3′R,6′R,7′S,8′E,11′S,12′R)-6-chloro-7′-methoxy-11′,12′-dimethyl-7′-((5-methyl-1,3,4-oxadiazol-2-yl)methyl)-3,4-dihydro-2H,15′H-spiro[naphthalene-1,22′-[20]oxa[13]thia[1,14]diazatetracyclo [14.7.2.0~3,6~.0~19,24~]pentacosa[8,16,18,24]tetraen]-15′-one 13′,13′-dioxide]
IC50 [1]: 0.415 nM | IC50 [2]: 1490 nM

COCC[C@@H]1[C@@H](C)C/C=C/[C@@](O)(C2SCCCS2)[C@@H]2CC[C@H]2CN2C[C@@]3(CCCc4cc(Cl)ccc43)COc3ccc(cc32)C(=O)NS1(=O)=O [Example 100513, (1S,3′R,6′R,7′S,8′E,11′S,12′R)-6-chloro-7′-(1,3-dithian-2-yl)-7′-hydroxy-12′-(2-methoxyethyl)-11′-methyl-3,4-dihydro-2H,15′H-spiro[naphthalene-1,22′-[20]oxa[13]thia[1,14]diazatetracyclo [14.7.2.0~3,6~.0~19,24~]pentacosa[8,16,18,24]tetraen]-15′-one 13′,13′-dioxide]
IC50 [1]: 0.071 nM | IC50 [2]: 288 nM

COCC[C@@H]1[C@@H](C)C/C=C/[C@](OC)(C2SCCCS2)[C@@H]2CC[C@H]2CN2C[C@@]3(CCCc4cc(Cl)ccc43)COc3ccc(cc32)C(=O)NS1(=O)=O [Example 100515, (1S,3′R,6′R,7′R,8′E,11′S,12′R)-6-chloro-7′-(1,3-dithian-2-yl)-7′-methoxy-12′-(2-methoxyethyl)-11′-methyl-3,4-dihydro-2H,15′H-spiro[naphthalene-1,22′-[20]oxa[13]thia[1,14]diazatetracyclo [14.7.2.0~3,6~.0~19,24~]pentacosa[8,16,18,24]tetraen]-15′-one 13′,13′-dioxide]
IC50 [1]: 0.132 nM | IC50 [2]: 585 nM

Cc1nc([C@]2(O)/C=C/C[C@H](C)[C@@H](C)S(=O)(=O)NC(=O)c3ccc4c(c3)N(C[C@@H]3CC[C@H]32)C[C@@]2(CCCc3cc(Cl)ccc32)CO4)cs1 [Example 100516, (1S,3′R,6′R,7′S,8′E,11′S,12′R)-6-chloro-7′-hydroxy-11′,12′-dimethyl-7′-(2-methyl-1,3-thiazol-4-yl)-3,4-dihydro-2H,15′H-spiro[naphthalene-1,22′-[20]oxa[13]thia[1,14]diazatetracyclo [14.7.2.0~3,6~.0~19,24~]pentacosa[8,16,18,24]tetraen]-15′-one 13′,13′-dioxide]
IC50 [1]: 3.36 nM | IC50 [2]: 1900 nM

CO[C@@]1(c2csc(C)n2)/C=C/C[C@H](C)[C@@H](C)S(=O)(=O)NC(=O)c2ccc3c(c2)N(C[C@@H]2CC[C@H]21)C[C@@]1(CCCc2cc(Cl)ccc21)CO3 [Example 100517, (1S,3′R,6′R,7′S,8′E,11′S,12′R)-6-chloro-7′-methoxy-11′,12′-dimethyl-7′-(2-methyl-1,3-thiazol-4-yl)-3,4-dihydro-2H,15′H-spiro[naphthalene-1,22′-[20]oxa[13]thia[1,14]diazatetracyclo [14.7.2.0~3,6~.0~19,24~]pentacosa[8,16,18,24]tetraen]-15′-one 13′,13′-dioxide]
IC50 [1]: 1.06 nM | IC50 [2]: 3460 nM

CO[C@@]1(C#CCN2CCN3CCOC[C@@H]3C2)/C=C/C[C@H](C)[C@@H](C)S(=O)(=O)NC(=O)c2ccc3c(c2)N(C[C@@H]2CC[C@H]21)C[C@@]1(CCCc2cc(Cl)ccc21)CO3 [Example 100518, (1S,3′R,6′R,7′S,8′E,11′S,12′R)-6-chloro-7′-(3-((9aS)-hexahydropyrazino[2,1-c][1,4]oxazin-8(1H)-yl)-1-propyn-1-yl)-7′-methoxy-11′,12′-dimethyl-3,4-dihydro-2H,15′H-spiro[naphthalene-1,22′-[20]oxa[13]thia[1,14]diazatetracyclo [14.7.2.0~3,6~.0~19,24~]pentacosa[8,16,18,24]tetraen]-15′-one 13′,13′-dioxide]
IC50 [1]: 0.427 nM | IC50 [2]: 668 nM

COCC[C@@H]1[C@@H](C)C/C=C/[C@](C=O)(OC)[C@@H]2CC[C@H]2CN2C[C@@]3(CCCc4cc(Cl)ccc43)COc3ccc(cc32)C(=O)NS1(=O)=O [Example 100520, (1S,3′R,6′R,7′S,8′E,11′S,12′R)-6-chloro-7′-methoxy-12′-(2-methoxyethyl)-11′-methyl-15′-oxo-3,4-dihydro-2H-spiro[naphthalene-1,22′-[20]oxa[13]thia[1,14]diazatetracyclo [14.7.2.0~3,6~.0~19,24~]pentacosa[8,16,18,24]tetraene]-7′-carbaldehyde 13′,13′-dioxide]
IC50 [1]: 0.549 nM | IC50 [2]: 1690 nM

CO[C@@]1(Cc2nccs2)/C=C/C[C@H](C)[C@@H](C)S(=O)(=O)NC(=O)c2ccc3c(c2)N(C[C@@H]2CC[C@H]21)C[C@@]1(CCCc2cc(Cl)ccc21)CO3 [Example 100525, (1S,3′R,6′R,7′S,8′E,11′S,12′R)-6-chloro-7′-methoxy-11′,12′-dimethyl-7′-(1,3-thiazol-2-ylmethyl)-3,4-dihydro-2H,15′H-spiro[naphthalene-1,22′-[20]oxa[13]thia[1,14]diazatetracyclo [14.7.2.0~3,6~.0~19,24~]pentacosa[8,16,18,24]tetraen]-15′-one 13′,13′-dioxide]
IC50 [1]: 3.31 nM | IC50 [2]: 1430 nM

Cc1nccnc1C[C@@]1(O)/C=C/C[C@H](C)[C@@H](C)S(=O)(=O)NC(=O)c2ccc3c(c2)N(C[C@@H]2CC[C@H]21)C[C@@]1(CCCc2cc(Cl)ccc21)CO3 [Example 100526, (1S,3′R,6′R,7′R,8′E,11′S,12′R)-6-chloro-7′-hydroxy-11′,12′-dimethyl-7′-((3-methyl-2-pyrazinyl)methyl)-3,4-dihydro-2H,15′H-spiro[naphthalene-1,22′-[20]oxa[13]thia[1,14]diazatetracyclo [14.7.2.0~3,6~.0~19,24~]pentacosa[8,16,18,24]tetraen]-15′-one 13′,13′-dioxide]
IC50 [1]: 0.387 nM | IC50 [2]: 826 nM

CO[C@@]1(Cc2nc(C)co2)/C=C/C[C@H](C)[C@@H](C)S(=O)(=O)NC(=O)c2ccc3c(c2)N(C[C@@H]2CC[C@H]21)C[C@@]1(CCCc2cc(Cl)ccc21)CO3 [Example 100527, (1S,3′R,6′R,7′S,8′E,11′S,12′R)-6-chloro-7′-methoxy-11′,12′-dimethyl-7′-((4-methyl-1,3-oxazol-2-yl)methyl)-3,4-dihydro-2H,15′H-spiro[naphthalene-1,22′-[20]oxa[13]thia[1,14]diazatetracyclo [14.7.2.0~3,6~.0~19,24~]pentacosa[8,16,18,24]tetraen]-15′-one 13′,13′-dioxide]
IC50 [1]: 3.6 nM | IC50 [2]: 3570 nM

COC(=O)[C@@H](C)NC(=O)C[C@]1(OC)/C=C/C[C@H](C)[C@@H](C)S(=O)(=O)NC(=O)c2ccc3c(c2)N(C[C@@H]2CC[C@H]21)C[C@@]1(CCCc2cc(Cl)ccc21)CO3 [Example 100528, methyl N-(((1S,3′R,6′R,7′S,8′E,11′S,12′R)-6-chloro-7′-methoxy-11′,12′-dimethyl-13′,13′-dioxido-15′-oxo-3,4-dihydro-2H-spiro[naphthalene-1,22′-[20]oxa[13]thia[1,14]diazatetracyclo [14.7.2.0~3,6~.0~19,24~]pentacosa[8,16,18,24]tetraen]-7′-yl)acetyl)-D-alaninate]
IC50 [1]: 0.138 nM | IC50 [2]: 257 nM

From patent US10821115B2, “Compounds that inhibit Mcl-1 protein” (priority 2017, dated 2020)
